Results taken from the supplement of paper PMC10307832.

Columns and labels:
Test in all cases: relative viability (nuclei count vs DMSO), 5 days (fraction); higher = more cells survive
DM3189 + Lapatinib = compound: C1CN(CCN1)C2=CC=C(C=C2)C3=CN4C(=C(C=N4)C5=CC=NC6=CC=CC=C56)N=C3 [DM3189] + CS(=O)(=O)CCNCc1ccc(-c2ccc3ncnc(Nc4ccc(OCc5cccc(F)c5)c(Cl)c4)c3c2)o1 [Lapatinib] (partner 2 µM)
Method in brief: (§1)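 After 5 days of treatment, lung cancer cells in 1536-well plates were fixed and stained in a single step (final 0.05% Triton X-100, 1% formaldehyde, 1 ug/ml Hoechst) and their nuclei counted on 4× images. Treatment had been applied by pin tool the day after seeding as one drug alone or as a fixed anchor-drug dose with five library-drug doses (not always all listed) in √10 steps. Relative viability is the nuclei count of treated wells divided by that of vehicle wells, and values are medians of duplicate plates.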

DM3189 + Alpelisib = compound: C1CN(CCN1)C2=CC=C(C=C2)C3=CN4C(=C(C=N4)C5=CC=NC6=CC=CC=C56)N=C3 [DM3189] + Cc1nc(NC(=O)N2CCC[C@H]2C(N)=O)sc1-c1ccnc(C(C)(C)C(F)(F)F)c1 [Alpelisib] (partner 2 µM)
Method in brief: as §1

DM3189 + Dasatinib = compound: C1CN(CCN1)C2=CC=C(C=C2)C3=CN4C(=C(C=N4)C5=CC=NC6=CC=CC=C56)N=C3 [DM3189] + Cc1nc(Nc2ncc(C(=O)Nc3c(C)cccc3Cl)s2)cc(N2CCN(CCO)CC2)n1 [Dasatinib] (partner 0.075 µM)
Method in brief: as §1

DM3189 + Phenformin = compound: C1CN(CCN1)C2=CC=C(C=C2)C3=CN4C(=C(C=N4)C5=CC=NC6=CC=CC=C56)N=C3 [DM3189] + N=C(N)NC(=N)NCCc1ccccc1 [Phenformin] (partner 250 µM)
Method in brief: as §1

DM3189 + AZD7762 = compound: C1CN(CCN1)C2=CC=C(C=C2)C3=CN4C(=C(C=N4)C5=CC=NC6=CC=CC=C56)N=C3 [DM3189] + NC(=O)Nc1cc(-c2cccc(F)c2)sc1C(=O)N[C@H]1CCCNC1 [AZD7762] (partner 0.2 µM)
Method in brief: as §1

Cell Line	relative viability (DM3189 + Lapatinib; first compound 0.08 µM)	relative viability (DM3189 + Lapatinib; first compound 0.253 µM)	relative viability (DM3189 + Lapatinib; first compound 0.8 µM)	relative viability (DM3189 + Lapatinib; first compound 2.53 µM)	relative viability (DM3189 + Alpelisib; first compound 0.08 µM)	relative viability (DM3189 + Alpelisib; first compound 0.253 µM)	relative viability (DM3189 + Alpelisib; first compound 0.8 µM)	relative viability (DM3189 + Alpelisib; first compound 2.53 µM)	relative viability (DM3189 + Dasatinib; first compound 0.08 µM)	relative viability (DM3189 + Dasatinib; first compound 0.253 µM)	relative viability (DM3189 + Dasatinib; first compound 0.8 µM)	relative viability (DM3189 + Dasatinib; first compound 2.53 µM)	relative viability (DM3189 + Phenformin; first compound 0.08 µM)	relative viability (DM3189 + Phenformin; first compound 0.253 µM)	relative viability (DM3189 + Phenformin; first compound 0.8 µM)	relative viability (DM3189 + Phenformin; first compound 2.53 µM)	relative viability (DM3189 + AZD7762; first compound 0.08 µM)	relative viability (DM3189 + AZD7762; first compound 0.253 µM)	relative viability (DM3189 + AZD7762; first compound 0.8 µM)	relative viability (DM3189 + AZD7762; first compound 2.53 µM)
201T	1.06	1.03	0.998	1.03	1.05	1.02	1	1.05	0.589	0.543	0.385	0.557	0.482	0.429	0.388	0.431	0.717	0.639	0.611	0.537
A-427	1.08	1.03	0.983	0.929	1.11	1.04	1.01	1.09	0.765	0.78	0.684	0.732	0.344	0.297	0.284	0.227	0.684	0.701	0.677	0.723
ABC-1	1.3	1.06		0.931	0.864	1.07	1.02	0.925	0.607	0.559	0.448	0.423	0.256	0.233	0.216	0.176	0.914	0.679	0.742	1.06
BEN	0.707	0.699	0.703	0.708	0.917	1	1.03	0.934	0.314	0.295	0.319	0.33	0.237	0.312	0.268	0.287	0.76	0.646	0.702	0.738
CAL-12T	0.623	0.675	0.616	0.947	1.42	1.14	1.41	1.43	0.546	0.469	0.487	0.571	0.588	0.571	0.526	0.703	0.533	0.629	0.585	0.684
EKVX	0.201	0.183	0.228	0.245	0.944	0.77	0.807	0.869	0.542	0.473	0.457	0.518	0.251	0.224	0.218	0.242	0.809		0.623	0.638
EMC-BAC-2	0.894	0.888	0.859	0.934	0.684	0.432	0.718	0.8	0.372	0.32	0.319	0.353	0.554	0.495	0.456	0.436	1.26	1.03	0.976	1.05
EPLC-272H	1.1	0.842	0.933	0.762	0.876	1.1	0.916	0.838	0.406	0.375	0.276	0.265	0.284	0.293	0.25	0.276	0.174	0.219	0.276	0.186
H3255	0.259	0.267	0.224	0.277	0.834	0.739	0.681	0.847	0.553	0.303	0.442	0.32	0.305	0.422	0.338	0.376	1.14	0.883	0.88	0.943
HARA	0.93	0.625	0.6	0.856	0.801	0.766	0.787	0.958	0.358	0.262	0.306	0.313	0.515	0.42	0.391	0.568	0.263	0.364	0.161	0.302
HCC-15	0.983	0.843	0.81	0.816	0.951	0.798	0.802	0.894	0.632	0.541	0.492	0.559	0.555	0.437	0.41	0.435	1.19	1.14	1.08	1.24
HCC-78	0.981	0.656		0.825	0.635	0.315		0.311	0.362	0.495	0.393	0.381	0.713	0.754	0.724	0.605	0.644	0.546	0.497	0.531
HCC-366	0.839	0.93	0.681	0.931	0.417	0.436	0.167	0.423	0.943	0.759		0.846	0.531	0.611		0.605	0.293	0.267	0.197	0.241
HCC-827	0.179	0.161	0.16	0.192	1.1	0.888	0.847	1.03	0.378	0.276	0.317	0.378	0.443	0.444	0.441	0.431	0.207	0.194	0.205	0.195
HOP-62	1.23	0.968	1.01	0.977	1.29	1.11	0.773	0.911	0.78	0.65	0.716	0.68	0.691	0.722	0.6	0.682	0.672	0.646	0.621	0.596
LC-2-ad	0.946	0.787	0.823	0.836	0.822	0.76	0.857	0.71	0.636	0.487	0.458	0.572	0.689	0.531	0.533	0.584	0.927	0.872	0.872	0.8

Cell Line	relative viability (DM3189 + Lapatinib; first compound 0.08 µM)	relative viability (DM3189 + Lapatinib; first compound 0.253 µM)	relative viability (DM3189 + Lapatinib; first compound 0.8 µM)	relative viability (DM3189 + Lapatinib; first compound 2.53 µM)	relative viability (DM3189 + Alpelisib; first compound 0.08 µM)	relative viability (DM3189 + Alpelisib; first compound 0.253 µM)	relative viability (DM3189 + Alpelisib; first compound 0.8 µM)	relative viability (DM3189 + Alpelisib; first compound 2.53 µM)	relative viability (DM3189 + Dasatinib; first compound 0.08 µM)	relative viability (DM3189 + Dasatinib; first compound 0.253 µM)	relative viability (DM3189 + Dasatinib; first compound 0.8 µM)	relative viability (DM3189 + Dasatinib; first compound 2.53 µM)	relative viability (DM3189 + Phenformin; first compound 0.08 µM)	relative viability (DM3189 + Phenformin; first compound 0.253 µM)	relative viability (DM3189 + Phenformin; first compound 0.8 µM)	relative viability (DM3189 + Phenformin; first compound 2.53 µM)	relative viability (DM3189 + AZD7762; first compound 0.08 µM)	relative viability (DM3189 + AZD7762; first compound 0.253 µM)	relative viability (DM3189 + AZD7762; first compound 0.8 µM)	relative viability (DM3189 + AZD7762; first compound 2.53 µM)
LCLC-97TM1	0.744	0.488	0.416	0.755	0.163	0.239	0.219	0.185	0.768	0.591	0.591	0.375	0.459	0.364	0.433	0.399	0.275	0.177	0.207	0.171
LK-2	0.613	0.625	0.458	0.43	1.05	0.6	0.445	0.564	0.294	0.287	0.221	0.29	0.29	0.26	0.228	0.237	0.252	0.153	0.225	0.219
LOU-NH91	0.76	0.704	0.544	0.605	0.765	0.702	0.668	0.683	0.688	0.541	0.51	0.475	0.886	0.689	0.706	0.747	0.825	0.73	0.642	0.683
LU99A	1.02	0.879		0.987	0.468	0.422		0.384	0.748	0.565		0.595	0.964	0.735		0.8	0.379	0.362		0.283
LXF-289	0.9	0.934	0.868	0.981	1.03	1.03	1.01	1.14	0.264	0.197	0.189	0.223	0.529	0.491	0.501	0.527	1.17	1.2	1.1	1.14
NCI-H23	1.32	0.888	0.994	1.19	0.768	0.741	0.675	0.699	0.878	0.713	0.716	0.749	0.865	0.761	0.643	0.826	0.231	0.237	0.128	0.265
NCI-H322M	0.651	0.633	0.508	0.603	0.734	0.867	0.805	0.884	0.268	0.251	0.235	0.218	0.866	0.782	0.651	0.652	0.662	0.644	0.662	0.519
NCI-H358	0.489	0.359	0.523	0.424	0.851	0.83	0.779	0.492	0.177	0.166	0.17	0.163	0.453	0.311	0.323	0.269	0.5	0.502	0.517	0.444
NCI-H460	1.45	1.03	0.825	0.235	0.507	0.567	0.44	0.184	0.728	0.532	0.47	0.666	0.737	0.535	0.451	0.545	0.784	0.524	0.395	0.691
NCI-H596	1.19	1.06	0.799	0.99	0.578	0.517	0.386	0.478	0.747	0.71	0.497	0.609	0.724	0.802	0.78	0.709	1.15	1.07	1.08	0.986
NCI-H647	1.36	0.823	0.622	0.463	1.01	0.704	0.659	0.179	0.264	0.193	0.215	0.157	0.664	0.4	0.546	0.228	0.626	0.408	0.4	0.277
NCI-H650	0.992	0.593	0.765	0.521	1.35	1.07	0.975	0.915	0.558	0.509	0.5	0.408	0.518	0.497	0.47	0.489	0.937	0.956	1.05	1
NCI-H727	0.829	0.626		0.781	0.638	0.503		0.56	0.364	0.336		0.299	0.628	0.517		0.533	0.613	0.602	0.629	0.526
NCI-H838	1.1	0.867	0.65	0.897	0.965	0.981	0.749	0.989	0.346	0.303	0.261	0.274	0.775	0.507	0.471	0.385	0.979	0.856	0.816	0.895
NCI-H1355	1.07	0.972	0.819	0.919	0.884	0.81	0.678	0.812	0.788	0.706	0.474	0.633	0.438	0.43	0.405	0.394	0.687	0.813	0.585	0.648
NCI-H1395	1.1	0.92	0.724	0.896	0.927	0.871	1.04	1.34	0.461	0.39	0.397	0.415	0.465	0.431	0.456	0.442	0.385	0.396		0.39
